# Assay results from paper PMC12074479, “Design, Synthesis, and Biological Evaluation of New Analogs of Aurein 1.2 Containing Non-Proteinogenic Amino Acids” (Molecules, 2025).
# Like-named read-outs stand apart in the source and are kept apart here. Where a SMILES comes first, the peptide text is derived from it. Where no end group is shown, it is not given here. [ ]: non-standard residue; d: D form. Orn = NCCC[C@H](N)C(=O)O; Dab = NCC[C@H](N)C(=O)O; Dap = NC[C@H](N)C(=O)O
# Tests used:
# in vitro = conditions: mouse, Mean CC50 ± SD
# Method: (§1) An in vitro BALB 3T3 Neutral Red Uptake assay was used to determine the cytotoxicity/phototoxicity of the peptides. Cytotoxicity of peptide analogs was calculated as a percentage relative to the negative control. […] Photo irritation factor (PIF) was used to assess the phototoxic potential of the peptide analogs. The PIF factor represents the ratio between the CC50 values of dark (non-irradiated or—Irr) and irradiated (+Irr) microplates, PIF = (CC50 − Irr)/(CC50 + Irr).
# (§2) Mouse embryonic fibroblasts (BALB 3T3) were used to perform the cytotoxicity and phototoxicity tests. The tests were performed by OECD Guidelines for the Testing of Chemicals, Section 4, Test No. 432. Cells were plated at 1 × 10^4 cells/well in 96-well plates. Cells were incubated in a thermostat for 24 h. Then, the test peptides were added at various working concentrations (4–1000 μM). In the phototoxicity test, 96-well plates were irradiated with a dose of 2.4 J/cm^2 using a solar light simulator Helios-iO (SERIC Ltd., Tokyo, Japan). Cell viability was measured using the BALB 3T3 neutral red uptake test. Cytotoxicity is presented as % relative to the negative control.
# BALB 3T3 cells = experiment: in vitro; conditions: for Toxicity compared to the parent peptide aurein 1.2: BALB 3T3 cells, fold lower toxicity
# Method: as §1, §2
# MCF-12F = experiment: cells; conditions: 72 h
# Method: (§3) The peptides were studied for antiproliferative activity with an MTT-dye reduction assay. Cell cultures were incubated with the test peptides in twofold increasing concentrations (from 2 to 500 μM) for 72 h.
# (§4) The antiproliferative activity of the peptides was determined in normal epithelial cells (MCF-12F) and tumor cells (MCF-7 and MDA-MB-231) by MTT-assay. Cells were plated 1 × 10^3 cells/100 µL/well of 96-well plates and incubated in a thermostat under standard conditions for 24 h. Cells were then incubated with the tested peptide analogs for 72 h in different concentrations (from 2 to 500 µM). The optical density of the formazan was measured at λ = 540 nm using a microplate reader. Antiproliferative activity was expressed as % from negative control. […] The statistical analysis of the results was performed using one-way ANOVA followed by Bonferroni’s post hoc test by GraphPad Prism 8 software (San Diego, CA, USA).
# MCF-7 = experiment: cells
# Method: as §3, §4
# MDA-MB-231 = experiment: cells
# Method: as §3, §4
# [1] = system: Bacillus subtilis NBIMCC 3562
# Method: (§5) The antimicrobial activity of the 7 new analogs of aurein 1.2 was evaluated by determining the MIC and MBC against Gram-positive strain Bacillus subtilis 3562 and Gram-negative strain Escherichia coli K12 407. The MIC of the newly synthesized analogs was assessed by applying a broth microdilution method, whereas their MBC was determined by using a spread plate method. All experiments were performed in triplicate.
# (§6) Bacillus subtilis NBIMCC 3562 and Escherichia coli NBIMCC K12 407 were used as test microorganisms and were purchased from the National Bank for Industrial Microorganisms and Cell Cultures (NBIMCC, Sofia, Bulgaria). Exponential cultures were obtained in Nutrient broth (NB, HiMedia, Mumbai, India) for B. subtilis NBIMCC 3562 and Luria-Bertani (LB, HiMedia, Mumbai, India) for E. coli NBIMCC K12 407, after cultivation in an incubator shaker ES-20/60 (Biosan, Latvia) at 30/37 °C for 24 h. Then, the turbidity of the microbial cultures was adjusted to the 0.5 McFarland standard using a Grant Bio DEN-1B Densitometer (Grant Instruments, Royston, UK).
# (§7) The antimicrobial activity of the obtained aurein 1.2 analogs was evaluated using the broth microdilution method, recommended by the Clinical and Laboratory Standards Institute (CLSI), to determine the minimum inhibitory concentration (MIC) of the peptides against B. subtilis NBIMCC 3562 and E. coli NBIMCC K12 407. All peptides were previously dissolved in 10% EtOH/H2O, and their 10 mg/mL stock solutions were stored at −20 °C. Bacterial cultures, previously adjusted to 0.5 McFarland standard, were incubated in the presence of different peptide concentrations (0–320 µg/mL) in 96-well polystyrene microplates (Deltalab S.L., Barcelona, Spain) at 30/37 °C for 24 h. The lowest concentration of each peptide, which inhibited bacterial growth, was considered as MIC. In addition, a drop of 20 µL of the 24 h inhibitory concentration test samples was spotted on the corresponding solid media to determine the minimum bactericidal concentration (MBC). […] All experiments were performed in triplicate.
# [2] = system: Escherichia coli NBIMCC K12 407
# Method: as §5, §6, §7
# [3] = SI = IC50 (normal cells)/IC50 (tumor cells), normal cells MCF-12F
# [4] = +Irr, BALB 3T3 cells, irradiated 2.4 J/cm^2, NRU
# [5] = −Irr, BALB 3T3 cells, non-irradiated (dark), NRU
# [6] = PIF = (CC50 −Irr)/(CC50 +Irr), PIF < 2 not phototoxic, 2 < PIF < 5 possible phototoxicity, PIF > 5 phototoxic
# [7] = read-out: Mean IC50 ± SD, MCF-12F, MTT, normal cell line
# [8] = read-out: Mean IC50 ± SD, MCF-7, MTT, 72 h
# [9] = read-out: Mean IC50 ± SD, MDA-MB-231, MTT, 72 h
# [10] = broth microdilution, 0–320 µg/mL, 24 h, NI = no inhibition monitored
Compound,CC50 (in vitro; +Irr) [µM],PIF (Photo Irritation Factor) (BALB 3T3 cells),IC50 (MCF-12F) [µM],IC50 (MCF-7; 72 h) [µM],IC50 (MDA-MB-231; 72 h) [µM],"MIC, Bacillus subtilis NBIMCC 3562 ([1]; NBIMCC 3562, 24 h) [µg/mL]","MIC, Escherichia coli NBIMCC K12 407 ([2]; K12, 24 h) [µg/mL]",CC50 (in vitro; [4]) [µM],CC50 (in vitro; [5]) [µM],further results
"CN(C)CCCN1c2ccccc2Sc2ccc(Cl)cc21 [Chlorpromazine, reference compound]",2.04 ± 0.07,,,,,,,,,PIF (Photo Irritation Factor) (BALB 3T3 cells; mouse): 6.06
"COc1cccc2c1C(=O)c1c(O)c3c(c(O)c1C2=O)C[C@@](O)(C(=O)CO)C[C@@H]3O[C@H]1C[C@H](N)[C@H](O)[C@H](C)O1 [Doxorubicin, reference compound]",,,,,,,,,,"IC50 (MCF-12F; Homo sapiens, read-out: Mean IC50 ± SD, MCF-12F): 0.601 ± 0.059 µM; IC50 (MCF-7; Homo sapiens, MCF7, 72 h, read-out: Mean IC50 ± SD, MCF-7): 0.68 ± 0.031 µM; SI, MCF-7 (MCF-7; [3]): 0.88; IC50 (MDA-MB-231; Homo sapiens, MDA-MB-231, 72 h, read-out: Mean IC50 ± SD, MDA-MB-231): 2.53 ± 0.11 µM; SI, MDA-MB-231 (MDA-MB-231; [3]): 0.237"
"CC[C@H](C)[C@H](NC(=O)[C@H](CCN)NC(=O)[C@H](CCN)NC(=O)[C@@H](NC(=O)[C@@H](NC(=O)[C@H](CC(=O)O)NC(=O)[C@H](Cc1ccccc1)NC(=O)[C@H](CC(C)C)NC(=O)CN)[C@@H](C)CC)[C@@H](C)CC)C(=O)N[C@@H](C)C(=O)N[C@@H](CCC(=O)O)C(=O)N[C@@H](CO)C(=O)N[C@@H](Cc1ccccc1)C(N)=O [EH [Dab]^7,8, Gly-Leu-Phe-Asp-Ile-Ile-Dab^7-Dab^8-Ile-Ala-Glu-Ser-Phe-NH2] (H-GLFDII[Dab][Dab]IAESF-NH2)",181.1 ± 1.81,1.11,168 ± 2.54,92.2 ± 1.8,164 ± 2.51,160,160,,,Toxicity compared to the parent peptide aurein 1.2 (BALB 3T3 cells): two to four times lower toxicity
"CC[C@H](C)[C@H](NC(=O)[C@H](CCCCN)NC(=O)[C@H](CCN)NC(=O)[C@@H](NC(=O)[C@@H](NC(=O)[C@H](CC(=O)O)NC(=O)[C@H](Cc1ccccc1)NC(=O)[C@H](CC(C)C)NC(=O)CN)[C@@H](C)CC)[C@@H](C)CC)C(=O)N[C@@H](C)C(=O)N[C@@H](CCC(=O)O)C(=O)N[C@@H](CO)C(=O)N[C@@H](Cc1ccccc1)C(N)=O [EH [Dab]^7, Gly-Leu-Phe-Asp-Ile-Ile-Dab^7-Lys-Ile-Ala-Glu-Ser-Phe-NH2] (H-GLFDII[Dab]KIAESF-NH2)",113 ± 5.57,1.40,92.1 ± 2.12,74.4 ± 3.29,125 ± 4.97,80,80,,,"MBC, Bacillus subtilis NBIMCC 3562 ([1]; NBIMCC 3562, 24 h): 320 µg/mL"
"CC[C@H](C)[C@H](NC(=O)[C@H](CCN)NC(=O)[C@H](CCCCN)NC(=O)[C@@H](NC(=O)[C@@H](NC(=O)[C@H](CC(=O)O)NC(=O)[C@H](Cc1ccccc1)NC(=O)[C@H](CC(C)C)NC(=O)CN)[C@@H](C)CC)[C@@H](C)CC)C(=O)N[C@@H](C)C(=O)N[C@@H](CCC(=O)O)C(=O)N[C@@H](CO)C(=O)N[C@@H](Cc1ccccc1)C(N)=O [EH [Dab]^8, Gly-Leu-Phe-Asp-Ile-Ile-Lys-Dab^8-Ile-Ala-Glu-Ser-Phe-NH2] (H-GLFDIIK[Dab]IAESF-NH2)",81.4 ± 2.34,1.13,68.3 ± 3.51,67.2 ± 2.57,79.7 ± 1.78,80,80,,,"MBC, Bacillus subtilis NBIMCC 3562 ([1]; NBIMCC 3562, 24 h): 320 µg/mL"
"CC[C@H](C)[C@H](NC(=O)[C@H](CN)NC(=O)[C@H](CN)NC(=O)[C@@H](NC(=O)[C@@H](NC(=O)[C@H](CC(=O)O)NC(=O)[C@H](Cc1ccccc1)NC(=O)[C@H](CC(C)C)NC(=O)CN)[C@@H](C)CC)[C@@H](C)CC)C(=O)N[C@@H](C)C(=O)N[C@@H](CCC(=O)O)C(=O)N[C@@H](CO)C(=O)N[C@@H](Cc1ccccc1)C(N)=O [EH [Dap]^7,8, Gly-Leu-Phe-Asp-Ile-Ile-Dap^7-Dap^8-Ile-Ala-Glu-Ser-Phe-NH2] (H-GLFDII[Dap][Dap]IAESF-NH2)",357.5 ± 3.03,1.01,308 ± 21.7,289 ± 19.8,372.2 ± 3.17,320,,,,Toxicity compared to the parent peptide aurein 1.2 (BALB 3T3 cells): two to four times lower toxicity
"CC[C@H](C)[C@H](NC(=O)[C@H](CCCN)NC(=O)[C@H](CCCN)NC(=O)[C@@H](NC(=O)[C@@H](NC(=O)[C@H](CC(=O)O)NC(=O)[C@H](Cc1ccccc1)NC(=O)[C@H](CC(C)C)NC(=O)CN)[C@@H](C)CC)[C@@H](C)CC)C(=O)N[C@@H](C)C(=O)N[C@@H](CCC(=O)O)C(=O)N[C@@H](CO)C(=O)N[C@@H](Cc1ccccc1)C(N)=O [EH [Orn]^7,8, Gly-Leu-Phe-Asp-Ile-Ile-Orn^7-Orn^8-Ile-Ala-Glu-Ser-Phe-NH2] (H-GLFDII[Orn][Orn]IAESF-NH2)",,,,,,,,101 ± 3.7,157 ± 6.38,"PIF (Photo Irritation Factor) (BALB 3T3 cells; [6]): 1.55; IC50 (MCF-12F; [7]): 112 ± 7.14 µM; IC50 (MCF-7; [8]): 88.9 ± 3.14 µM; IC50 (MDA-MB-231; [9]): 123 ± 6.47 µM; MBC, Bacillus subtilis NBIMCC 3562 ([1]; 0–320 µg/mL, NI = no inhibition monitored): 320 µg/mL; MIC, Bacillus subtilis NBIMCC 3562 [1, 10]: 80 µg/mL; MIC, Escherichia coli NBIMCC K12 407 [2, 10]: 80 µg/mL"
"CC[C@H](C)[C@H](NC(=O)[C@H](CCCCN)NC(=O)[C@H](CCCN)NC(=O)[C@@H](NC(=O)[C@@H](NC(=O)[C@H](CC(=O)O)NC(=O)[C@H](Cc1ccccc1)NC(=O)[C@H](CC(C)C)NC(=O)CN)[C@@H](C)CC)[C@@H](C)CC)C(=O)N[C@@H](C)C(=O)N[C@@H](CCC(=O)O)C(=O)N[C@@H](CO)C(=O)N[C@@H](Cc1ccccc1)C(N)=O [EH [Orn]^7, Gly-Leu-Phe-Asp-Ile-Ile-Orn^7-Lys-Ile-Ala-Glu-Ser-Phe-NH2] (H-GLFDII[Orn]KIAESF-NH2)",,,,,,,,102 ± 7.4,134 ± 7.4,
"CC[C@H](C)[C@H](NC(=O)[C@H](CCCN)NC(=O)[C@H](CCCCN)NC(=O)[C@@H](NC(=O)[C@@H](NC(=O)[C@H](CC(=O)O)NC(=O)[C@H](Cc1ccccc1)NC(=O)[C@H](CC(C)C)NC(=O)CN)[C@@H](C)CC)[C@@H](C)CC)C(=O)N[C@@H](C)C(=O)N[C@@H](CCC(=O)O)C(=O)N[C@@H](CO)C(=O)N[C@@H](Cc1ccccc1)C(N)=O [EH [Orn]^8, Gly-Leu-Phe-Asp-Ile-Ile-Lys-Orn^8-Ile-Ala-Glu-Ser-Phe-NH2] (H-GLFDIIK[Orn]IAESF-NH2)",,,,,,,,59.5 ± 5.21,75.6 ± 3.33,
"GLFDIIKKIAESF-NH2 [Aurein 1.2, Gly^1-Leu^2-Phe^3-Asp^4-Ile^5-Ile^6-Lys^7-Lys^8-Ile^9-Ala^10-Glu^11-Ser^12-Phe^13-NH2]",,,,,,,,87.2 ± 1.88,87.6 ± 2.45,"PIF (Photo Irritation Factor) (BALB 3T3 cells; [6]): 1; IC50 (MCF-12F; [7]): 71.4 ± 2.88 µM; IC50 (MCF-7; [8]): 68.9 ± 2.12 µM; IC50 (MDA-MB-231; [9]): 70.9 ± 2.06 µM; MIC, Bacillus subtilis NBIMCC 3562 [1, 10]: 160 µg/mL; MIC, Escherichia coli NBIMCC K12 407 [2, 10]: 40 µg/mL"
